Results as given in patent publication US20040248879A1, “Salts of tricyclic inhibitors of poly(ADP-ribose) polymerases” (Agouron Pharmaceuticals, Inc., priority 2003, published 2004).
Values after ≈ are worked out from the molar mass of the structure shown.

Assays:
[1] = Water Solubility Assay; assay type: physicochemical; details: Milli Q water, room temperature, stirred 3 hours, HPLC; for solubility at 3 h: water, thermodynamic from solid
Protocol: The sample suspension was stirred at room temperature for 3 hours. The suspension was transferred into an eppendorf vial and centrifuged at 14000 rpm for 8 minutes. The supernant solution was then assayed by HPLC.
The suspension was stirred at room temperature for 3 hours and then centrifuged at 14000/min for 8 minutes. The supernant was diluted 10 times by Milli Q water. The final solution was then assayed by HPLC.
Accurately weigh out 2.5-3.0 mg of AG014447 reference standard into 10 ml volumetric flask, and then bring to volume with MeOH. Mix thoroughly.
Buffer: 25 mM ammonium phosphate buffer (pH 2.5)
Organic Modifier: Acetonitrile (ACN)
Column: Waters Symmetry C18, 4.6×150 mm, 5 μm;
The solubility of the sample is calculated by the equation below: […]
Where A is the peak area of the sample; As is the peak area of the standard; Cs is the concentration of the standard solution; D is the dilution factor. [drawing 2]

[2] = tested on: A549 cells; assay: Cytotoxicity Potentiation Assay; assay type: cell-based; details: test compound 0.4 μm, with topotecan, ratio of IC50 of topotecan alone to IC50 in combination
Protocol: Cytotoxicity Potentiation Assay: A549 cells (ATCC, Rockville, Md.) were seeded into 96-well cell culture plates (Falcon brand, Fisher Scientific, Pittsburgh, Pa.) 16 to 24 hours before experimental manipulation. Cells were then treated with a test compound (or a combination of test compounds where indicated) for either 3 days or 5 days, at a concentration of 0.4 μm. At the end of treatments, relative cell number was determined either by MTT assay or SRB assay. For the MTT assay, 0.2 μg/μl of MTT (3-(4,5-dimethylthiazol-2-yl)-2,5-diphenyltetrazolium bromide, Sigma Chemical Co., St. Louis, Mo.) was added to each well of a plate, and the plate was incubated in a cell-culture incubator for 4 hours. Metabolized MTT in each well was solubilized in 150 μl of DMSO (Sigma Chemical Co.) with shaking and quantified with a Wallac 1420 Victor plate reader (EG&G Wallac, Gaithersburg, Md.) at 540 nm. For the SRB assay, cells were fixed with 10% trichloroacetic acid (Sigma Chemical Co) for an hour at 4° C. […] The bound dye was measured photometrically with the Wallac Victor plate reader at 515 nm. The ratio of the OD (optical density) value of a compound-treated culture to the OD value of a mock-treated culture, expressed in percentage, was used to quantify the cytotoxicity of a compound. […] For the compounds of the invention, PF50 values were determined by testing with topotecan.

solubility at 3 h [1] [µg/mL] | Solubility [1] [µg/mL] | Structure (SMILES) | further results
 | >128000 | CNCc1ccc(-c2[nH]c3cc(F)cc4c3c2CCNC4=O)cc1 [Gluconate, 8-Fluoro-2-(4-methylaminomethyl-phenyl)-1,3,4,5-tetrahydro-azepino[5,4,3-cd]indol-6-one Gluconate] | 
 | 89000 (≈ 275 mM) | CNCc1ccc(-c2[nH]c3cc(F)cc4c3c2CCNC4=O)cc1 [Glucuronate, 8-Fluoro-2-(4-methylaminomethyl-phenyl)-1,3,4,5-tetrahydro-azepino[5,4,3-cd]indol-6-one Glucuronate] | 
 | 180 (≈ 0.557 mM) | CNCc1ccc(-c2[nH]c3cc(F)cc4c3c2CCNC4=O)cc1 [Free base, 8-fluoro-2-(4-methylaminomethyl-phenyl)-1,3,4,5-tetrahydro-azepino[5,4,3-cd]indol-6-one] | Cytotoxicity Potentiation PF50 [2]: 2.4

The remaining lines, values behind:

Structure (SMILES) | solubility at 3 h [1] [µg/mL] | Solubility [1] [µg/mL] | further results
CC(=O)O.CNCc1ccc(-c2[nH]c3cc(F)cc4c3c2CCNC4=O)cc1 [Acetate, 8-fluoro-2-(4-methylaminomethyl-phenyl)-1,3,4,5-tetrahydro-azepino[5,4,3-cd]indol-6-one Acetate] | 8800 |  | 
CNCc1ccc(-c2[nH]c3cc(F)cc4c3c2CCNC4=O)cc1 [Phosphate, 8-Fluoro-2-(4-methylaminomethyl-phenyl)-1,3,4,5-tetrahydro-azepino[5,4,3-cd]indol-6-one Phosphate] |  |  | Solubility ([1]; Phosphate): 2800 µg/mL
CNCc1ccc(-c2[nH]c3cc(F)cc4c3c2CCNC4=O)cc1.Cl [Hydrochloride, 8-Fluoro-2-(4-methylaminomethyl-phenyl)-1,3,4,5-tetrahydro-azepino[5,4,3-cd]indol-6-one Hydrochloride] | 1600 |  | 
CNCc1ccc(-c2[nH]c3cc(F)cc4c3c2CCNC4=O)cc1.O=C(O)C(O)C(O)C(=O)O [Tartrate, 8-Fluoro-2-(4-methylaminomethyl-phenyl)-1,3,4,5-tetrahydro-azepino[5,4,3-cd]indol-6-one Tartrate] | 1100 |  | 
CNCc1ccc(-c2[nH]c3cc(F)cc4c3c2CCNC4=O)cc1.CS(=O)(=O)O [Mesylate, 8-Fluoro-2-(4-methylaminomethyl-phenyl)-1,3,4,5-tetrahydro-azepino[5,4,3-cd]indol-6-one Mesylate] | 15500 |  | 
